Measured values published in patent US11458152B2, “Use of agarobiose or agarooligosaccharide having anticariogenic activity” (Korea University Research and Business Foundation, priority 2016, dated 2022).

Key:
[1] = test system: Streptococcus mutans; assay: Acid production of Streptococcus mutans under mixed carbon source condition, extracellular glucose and lactic acid by HPLC (Example 8); type: cell-based, Streptococcus mutans ATCC 25175
Protocol: (§1) A strain used in the present experiment was Streptococcus mutans ATCC 25175. Streptococcus mutans ATCC 25175 was pre-cultured in a brain-heart infusion (BHI) medium for 8 hours, and was washed twice with a 2 mM potassium phosphate buffer, and then main-cultured in a minimal medium prepared with reference to a previously reported document (Fujiwara et al (1978) Arch Oral Biol. 23, 601-602) at 37° C. The minimal medium contains, in a 50 mM Tris-HCl buffer (pH 7.4), 2 g/L of L-glutamic acid, 0.2 g/L of cysteine hydrochloride, 0.9 g/L of L-leucine, 1 g/L of ammonium chloride, 3.5 g/L of potassium hydrogen phosphate, 1.5 g/L of potassium dihydrogen phosphate, 4.2 g/L of sodium hydrogen carbonate, 1.2 g/L of magnesium sulfate heptahydrate, 0.02 g/L of manganese chloride tetrahydrate, 0.02 g/L of iron sulfate heptahydrate, 0.6 g/L of sodium pyruvate, 1 mg/L of riboflavin, 0.5 mg/L of thiamine hydrochloride, 0.1 mg/L of biotin, 1 mg/L of nicotinic acid, 0.1 mg/L of p-aminobenzoic acid, 0.5 mg/L of calcium pantothenate, and 1 mg/L of pyridoxine hydrochloride.
To confirm an effect of agarobiose, agarooligosaccharides, xylitol, or neoagarobiose on acid production of Streptococcus mutans, Streptococcus mutans were cultured, using the method of Example 5, in 200 μl of a minimal medium containing 10 g/L of glucose and 0 g/L, 2.5 g/L, 5 g/L, 10 g/L, or 20 g/L of agarobiose, agarooligosaccharides, or neoagarobiose, or 0 g/L, 5 g/L, 10 g/L, or 20 g/L of xylitol in a 96-well plate. After 14 hours, concentrations of extracellular glucose and produced lactic acid were measured by HPLC. A column used for HPLC analysis was Aminex HPX-87H. 0.01 N of sulfuric acid as a mobile phase was flowed at a rate of 0.5 mL/min and 65° C.

[2] = test system: Streptococcus mutans; assay: Growth of Streptococcus mutans under single carbon source condition (Example 6); type: cell-based, Streptococcus mutans ATCC 25175; settings: 10 g/L as single carbon source in minimal medium, cultured 14 hours
Protocol: as §1, with “hydrochloride. To verify an effect of inhibiting the growth of Streptococcus mutans under a single carbon source condition, Streptococcus mutans were cultured in a minimal medium containing each of 10 g/L of agarobiose, agarooligosaccharides, glucose, xylitol, and neoagarobiose and a carbon source-free minimal medium. They were main-cultured using the method of Example 5 for 14 hours, and a degree of the cell growth was measured by measuring the absorbance of a culture solution at a wavelength of 600 nm every two hours.” for “hydrochloride.”

[3] = test system: Streptococcus mutans; assay: Growth inhibition of Streptococcus mutans under mixed carbon source condition, absorbance at 600 nm (Example 7); type: cell-based, Streptococcus mutans ATCC 25175
Protocol: as §1, with “hydrochloride. Streptococcus mutans was cultured, using the method of Example 5, in 200 μl of a minimal medium containing 10 g/L of glucose and agarobiose, agarooligosaccharides, xylitol, or neoagarobiose at various concentrations in a 96-well plate, and growth inhibitory effects thereof were observed by measuring absorbance at a wavelength of 600 nm over time. The treated concentrations of agarobiose, agarooligosaccharides, xylitol, and neoagarobiose were between 0 g/L and 20 g/L.” for “hydrochloride.”

[4] = test system: Streptococcus mutans; settings: literature (Trahan L et al); cited from earlier work
[5] = 2.5 g/L in 10 g/L glucose, 14 hours
[6] = 10 g/L in 10 g/L glucose, 14 hours
[7] = 20 g/L in 10 g/L glucose, 14 hours
[8] = mixed carbon source, 10 g/L glucose

OC[C@H]1O[C@@H](O[C@H]2[C@H]3OC[C@@H]2OC(O)[C@H]3O)[C@H](O)[C@@H](O)[C@H]1O (mixture of isomers) [agarobiose]
concentration of consumed glucose [1, 5]: 6.78 g/L | concentration of produced lactic acid [1, 5]: 5.65 g/L | decrease of consumed glucose compared to 0 g/L [1, 5]: 19% | decrease of produced lactic acid compared to 0 g/L [1, 5]: 32% | degree of inhibition of acid production compared with 10 g/L of xylitol ([1]; 5 g/L in 10 g/L glucose): greater | amount of consumed glucose [1, 6]: 4.05 g/L | amount of produced lactic acid [1, 6]: 3.25 g/L | decrease of consumed glucose compared to 0 g/L [1, 6]: 51.5% | decrease of produced lactic acid compared to 0 g/L [1, 6]: 60% | decrease of consumed glucose compared to 0 g/L [1, 7]: 58.76% | decrease of produced lactic acid compared to 0 g/L [1, 7]: 68% | growth of Streptococcus mutans [2]: no growth | absorbance value after 14 hours of culture ([3]; 2.5 g/L in 10 g/L glucose): 0.55 | degree of inhibition of growth compared with 10 g/L of xylitol ([3]; 5 g/L in 10 g/L glucose): greater | effect on inhibiting the growth of Streptococcus mutans compared with xylitol ([3]; same concentration, 10 g/L glucose): greater | final absorbance value compared with xylitol ([3]; same concentration, after 14 hours of culture, 10 g/L glucose): lower

OC[C@H]1OC(O)[C@H](O)[C@@H](O[C@@H]2O[C@H]3CO[C@@H]([C@@H]2O)[C@@H]3O)[C@H]1O (stereo partly shown) [neoagarobiose, reference compound]
inhibition of acid production of Streptococcus mutans [1, 8]: unable to inhibit | amount of consumed glucose compared to 0 g/L ([1]; up to 20 g/L in 10 g/L glucose): did not exhibit significant differences | amount of produced lactic acid compared to 0 g/L ([1]; up to 20 g/L in 10 g/L glucose): did not exhibit significant differences | growth of Streptococcus mutans [2]: no growth | inhibition of the growth of Streptococcus mutans [3, 8]: unable to inhibit | final absorbance value compared to 0 g/L ([3]; up to 20 g/L in 10 g/L glucose): did not exhibit significant differences | change in the growth of Streptococcus mutans ([3]; up to 20 g/L, minimal medium containing 10 g/L glucose): no significant change

OC[C@@H](O)[C@H](O)[C@@H](O)CO [xylitol, reference compound]
decrease of produced lactic acid compared to 0 g/L ([1]; 5 g/L in 10 g/L glucose, 14 hours): 30% | decrease of consumed glucose compared to 0 g/L [1, 6]: 23.98% | decrease of produced lactic acid compared to 0 g/L [1, 6]: 35% | decrease of consumed glucose compared to 0 g/L [1, 7]: 36.41% | decrease of produced lactic acid compared to 0 g/L [1, 7]: 35% | concentration needed to inhibit the growth of Streptococcus mutans [4]: ≥ 10 g/L | growth of Streptococcus mutans [2]: no growth | absorbance value at 600 nm after culturing for 14 hours ([3]; 20 g/L in 10 g/L glucose): 0.595
